# Test results: patent publication US11229224B2, “Phytochemical compositions used as disinfectants and food preservatives” (priority 2012, dated 2022)
# Columns and labels:
# S. choleraesuis = experiment: Diffusion technique, inhibition zone on agar; assay type: cell-based, Salmonella choleraesuis; conditions: 1:10 dilution of aqueous hibiscus extract, 10 μL on plate, 35±1° C., 24 h
# Protocol: (§1) This procedure was repeated twice. […] Finally, each strain was 10-fold diluted with ISS.
# (§2) 100 μL from the first dilution of the respective pathogen culture were inoculated in AST plates. Inoculum was completely distributed on agar surface by the surface extension technique. From the dry extract, a 10% solution of hibiscus calyxes was prepared with distilled water. 10 μL aliquots of this extract were placed on each inoculated plate. Four repetitions were carried out. After the extract was absorbed by agar the plates were incubated at 35±1° C. for 24 h. Finally, the diameter of each inhibition zone was measured on the inoculated surface.
# L. monocytogenes = experiment: Diffusion technique, inhibition zone on agar; assay type: cell-based, Listeria monocytogenes; conditions: 1:10 dilution of aqueous hibiscus extract, 10 μL on plate, 35±1° C., 24 h
# Protocol: as §1, §2
# P. aeruginosa = experiment: Diffusion technique, inhibition zone on agar; assay type: cell-based, Pseudomonas aeruginosa; conditions: 1:10 dilution of aqueous hibiscus extract, 10 μL on plate, 35±1° C., 24 h
# Protocol: as §1, §2
# V. cholerae O1 = experiment: Diffusion technique, inhibition zone on agar; assay type: cell-based, Vibrio cholerae O1; conditions: 1:10 dilution of aqueous hibiscus extract, 10 μL on plate, 35±1° C., 24 h
# Protocol: as §1, §2
# S. flexneri = experiment: Diffusion technique, inhibition zone on agar; assay type: cell-based, Shigella flexneri; conditions: 1:10 dilution of aqueous hibiscus extract, 10 μL on plate, 35±1° C., 24 h
# Protocol: as §1, §2
# S. typhimurium = experiment: Diffusion technique, inhibition zone on agar; assay type: cell-based, Salmonella typhimurium; conditions: 1:10 dilution of aqueous hibiscus extract, 10 μL on plate, 35±1° C., 24 h
# Protocol: as §1, §2
# S. sonnei = experiment: Diffusion technique, inhibition zone on agar; assay type: cell-based, Shigella sonnei; conditions: 1:10 dilution of aqueous hibiscus extract, 10 μL on plate, 35±1° C., 24 h
# Protocol: as §1, §2
# Enteroinvasive E. coli = experiment: Diffusion technique, inhibition zone on agar; assay type: cell-based, Escherichia coli; conditions: 1:10 dilution of aqueous hibiscus extract, 10 μL on plate, 35±1° C., 24 h
# Protocol: as §1, §2
# Enterotoxigenic E. coli = experiment: Diffusion technique, inhibition zone on agar; assay type: cell-based, Escherichia coli; conditions: 1:10 dilution of aqueous hibiscus extract, 10 μL on plate, 35±1° C., 24 h
# Protocol: as §1, §2
# Enterapathogenic E. coli = experiment: Diffusion technique, inhibition zone on agar; assay type: cell-based, Escherichia coli; conditions: 1:10 dilution of aqueous hibiscus extract, 10 μL on plate, 35±1° C., 24 h
# Protocol: as §1, §2
# E. coli = experiment: Diffusion technique, inhibition zone on agar; assay type: cell-based, Escherichia coli; conditions: 1:10 dilution of aqueous hibiscus extract, 10 μL on plate, 35±1° C., 24 h
# Protocol: as §1, §2
# S. aureus = experiment: Diffusion technique, inhibition zone on agar; assay type: cell-based, Staphylococcus aureus; conditions: 1:10 dilution of aqueous hibiscus extract, 10 μL on plate, 35±1° C., 24 h
# Protocol: as §1, §2
# toxigenic fungus = conditions: in food; cited from earlier work
# almost all flora = conditions: in food, within reasonable elevated limits of initial load; cited from earlier work
# most pathogens = conditions: in food; cited from earlier work
# S. Montevideo = conditions: 500 μl AITC; cited from earlier work
# native flora of soybeans = experiment: Total count in non-inoculated soybean seed after disinfection; assay type: cell-based
# Protocol: (§3) A comparison between the activity of aqueous extract and that of hypochlorite (1,000 and 10,000 ppm) was performed in non-inoculated seed. A total count was carried out in all cases.
# Salmonella sp = conditions: submerging sprouts into 100 and 200 ppm hypochlorite solutions; cited from earlier work
# native flora of alfalfa = experiment: Total count in non-inoculated alfalfa seed after disinfection; assay type: cell-based
# Protocol: as §3
# soybean seeds = experiment: Toxic effect on seed germination (FIGS. 1 to 6); assay type: in vivo, soybean seeds (Vigna radiata L)
# Protocol: Therefore, a study comparing the toxic effect of hypochlorite (1,000 and 10,000 ppm), hibiscus vegetal extract and acetic acid was performed, yielding the results shown in FIGS. 1 to 6.
# [1] = Table 8, hypochlorite 1,000 ppm
# [2] = Table 10, hypochlorite 10,000 ppm
# [3] = Table 9, hypochlorite 1,000 ppm
# [4] = Table 11, hypochlorite 10,000 ppm
compound,measurement,setting,value
penicillin,Inhibition diameter,S. choleraesuis,12 mm
same,Inhibition diameter,L. monocytogenes,12 mm
same,Inhibition diameter,P. aeruginosa,13 mm
same,Inhibition diameter,V. cholerae O1,13 mm
same,Inhibition diameter,S. flexneri,12 mm
same,Inhibition diameter,S. typhimurium,15 mm
same,Inhibition diameter,S. sonnei,14 mm
same,Inhibition diameter,Enteroinvasive E. coli,12 mm
same,Inhibition diameter,Enterotoxigenic E. coli,12 mm
same,Inhibition diameter,Enterapathogenic E. coli,11 mm
same,Inhibition diameter,E. coli,13 mm
same,Inhibition diameter,S. aureus,13 mm
CC(=O)O [acetic acid],concentration that has effects on toxigenic fungus,toxigenic fungus,0.5%
same,concentration that inhibits almost all flora,almost all flora,1-2%
same,concentration that acts on most pathogens,most pathogens,0.1%
C=CCN=C=S [AITC],decrease of S. Montevideo on tomato cuticle,S. Montevideo,8 Log
"OCl [Hypochlorite, sodium hypochlorite]",% of decrease,native flora of soybeans; [1],6.95%
same,Decrease,native flora of soybeans; [1],0.18 Log10 CFU/g
same,Final concentration,"native flora of soybeans; Table 8, hypochlorite 1,000 ppm, initial 2.59 ± 1.19, N = 3",2.41 ± 1.08 Log10 CFU/g
same,% of decrease,native flora of soybeans; [2],17.31%
same,Decrease,native flora of soybeans; [2],0.40 Log10 CFU/g
same,Final concentration,"native flora of soybeans; Table 10, hypochlorite 10,000 ppm, initial 2.31 ± 0.89, N = 3",1.91 ± 1.23 Log10 CFU/g
same,reduction of Salmonella sp in sprouts,Salmonella sp,1 Log10
same,% of decrease,native flora of alfalfa; [3],6.95%
same,Decrease,native flora of alfalfa; [3],0.18 Log10 CFU/g
same,Final concentration,"native flora of alfalfa; Table 9, hypochlorite 1,000 ppm, initial 3.59, N = 3",3.41 ± 0.38 Log10 CFU/g
same,% of decrease,native flora of alfalfa; [4],17.31%
same,Decrease,native flora of alfalfa; [4],0.40 Log10 CFU/g
same,Final concentration,"native flora of alfalfa; Table 11, hypochlorite 10,000 ppm, initial 3.30-3.31, N = 3",2.9 ± 0.56 Log10 CFU/g
same,structural damage of seeds,soybean seeds; FIGS. 2 and 4,structural damage
same,decrease of the sprout yield,"soybean seeds; hypochlorite, FIG. 4 (10,000 ppm sodium hypochlorite solution)",87.63%
